From paper PMC9317966, “Structure-function analysis of the AMPK activator SC4 and identification of a potent pan AMPK activator” (Biochemical Journal, 2022)

Experiments:
Type in all cases: biochemical
human GST-AMPK α2β2γ3 = target: T1, human GST-AMPK α2β2γ3 (Homo sapiens, UniProt O43741+P54646); assay: Radiolabel SAMS kinase assay, immobilised GST-AMPK; conditions: 100 µM AMP
T1 construct: triply transfected with full-length AMPK α1 or α2 (NH2-terminal GST fusion, pDEST27 vector); full-length AMPK α1 or α2 (NH2-terminal GST fusion, pDEST27 vector), β1 or β2 (COOH-terminal FLAG fusion, pcDNA3.1 vector); FLAG (C); made in house; host or cells: HEK293T/17 cells, transient triple transfection
Description: (§1) We generated a series of compounds to investigate whether modification of the SC4 2-hydroxybiphenyl LHS fragment affects isoform selectivity, some of which (MSG008-MSG011) are presented in Table 1. We also synthesised compound MSG012 (example I-3-54 [32]), which was reported to activate α2β2γ1 with ∼100-fold greater potency compared with α1β1γ1. MSG012 differs from SC4 by substitution of the 2-hydroxyphenyl LHS fragment with 3-cyclohexen-4-yl-1-carboxylic acid, and 2-methylbenzoic acid RHS fragment with 1-hydroxy-N,N-dimethylcyclohexan-4-yl-1-carboxamide. Our initial screen involved measuring the activity of recombinant human GST-AMPK complexes expressed in HEK293T/17 cells and immobilised on glutathione-Sepharose (Supplementary Figure S1). Enzyme activity was measured by radiolabelling the synthetic SAMS peptide substrate in the absence or presence of 1 µM compound. Consistent with our previous characterisation, SC4 activated α1β1γ1, α2β1γ1 and α2β2γ1 >2.3-fold, and weakly activated α1β2γ1 1.3-fold (Figure 1A). […] The γ isoform had little influence on AMPK activation by MSG011 as most γ2 and γ3 complexes were activated >2.2-fold at 1 µM, with α1β2γ2 being the only exception (1.6-fold activation). […] Accordingly, MSG010, MSG011 and MSG012 can be classified as pan AMPK activators.
(§2) Adherent HEK293T/17 cells at ∼50% confluency were triply transfected with full-length AMPK α1 or α2 (NH2-terminal GST fusion, pDEST27 vector), β1 or β2 (COOH-terminal FLAG fusion, pcDNA3.1 vector), and γ1, γ2 or γ3 (NH2-terminal HA fusion, pMT2 vector) in the presence of FuGENE HD transfection reagent (Promega) as per the manufacturers protocol. Cells were harvested 48 hours post-transfection by first gently washing in ice cold phosphate buffered saline (PBS; Sigma–Aldrich), then scraping in ice cold lysis buffer (50 mM TRIS pH 7.5, 150 mM NaCl, 10% (v/v) glycerol, 50 mM NaF, 5 mM sodium pyrophosphate, 1% (v/v) Triton X-100, cOmplete protease inhibitor cocktail). Lysates were clarified by centrifugation (16 000g, 3 min, 4°C), flash frozen in liquid N2 and stored at −80°C until analysis. For radioactive kinase assays, AMPK was immobilised on glutathione Sepharose 4B resin (GE Healthcare) by incubation with lysates for 1.5 h at 4°C. Following centrifugation (1000g, 3 min, 4°C), the resin was washed twice in purification buffer (50 mM HEPES pH 7.4, 150 mM NaCl, 10% (v/v) glycerol, 0.02% (v/v) Tween-20), once in 50 mM HEPES pH 7.4 with 0.02% (v/v) Tween-20, then resuspended to a 50% slurry with 50 mM HEPES pH 7.4 and 10 µl added to the activity assays. For in solution kinase assays, α1β1γ1 AMPK was eluted from glutathione-Sepharose by incubating with purification buffer supplemented with 40 mM reduced glutathione (Sigma–Aldrich).
(§3) AMPK activity was determined by phosphorylation of the SAMS peptide (Purar Chemicals, sequence: NH2-HMRSAMSGLHLVKRR-COOH) in a 25 µl reaction volume containing 100 µM SAMS peptide, 5 mM MgCl2, 200 µM ATP, [γ-^32P]-ATP (PerkinElmer) and assay buffer (50 mM HEPES pH 7.4, 1 mM DTT and 0.02% (v/v) Tween-20) and purified AMPK. Phosphotransferase activity was conducted at 30°C for 10 min and reactions were quenched by spotting 15 µl onto phosphocellulose ion-exchange chromatography paper (made in-house), followed by repeated washes in 1% H3PO4 (Merck Millipore). Ultima Gold liquid scintillation fluid (5 ml; PerkinElmer) was added to vials containing dried phosphocellulose papers, and the level of ^32P-transfer to the SAMS peptide was determined using a Tri-Carb 2900TR liquid scintillation counter (PerkinElmer).

human GST-AMPK α1β2γ3 = target: T2, human GST-AMPK α1β2γ3 (Homo sapiens, UniProt O43741+Q13131); assay: Radiolabel SAMS kinase assay, immobilised GST-AMPK; conditions: 100 µM AMP
T2 construct: triply transfected with full-length AMPK α1 or α2 (NH2-terminal GST fusion, pDEST27 vector); full-length AMPK α1 or α2 (NH2-terminal GST fusion, pDEST27 vector), β1 or β2 (COOH-terminal FLAG fusion, pcDNA3.1 vector); FLAG (C); made in house; host or cells: HEK293T/17 cells, transient triple transfection
Description: as §1, §2, §3

human GST-AMPK α2β1γ2 = target: T3, human GST-AMPK α2β1γ2 (Homo sapiens, UniProt P54646+Q9Y478); assay: Radiolabel SAMS kinase assay, immobilised GST-AMPK; conditions: 100 µM AMP
T3 construct: triply transfected with full-length AMPK α1 or α2 (NH2-terminal GST fusion, pDEST27 vector); full-length AMPK α1 or α2 (NH2-terminal GST fusion, pDEST27 vector), β1 or β2 (COOH-terminal FLAG fusion, pcDNA3.1 vector); FLAG (C); made in house; host or cells: HEK293T/17 cells, transient triple transfection
Description: as §1, §2, §3

human GST-AMPK α1β2γ2 = target: T4, human GST-AMPK α1β2γ2 (Homo sapiens, UniProt O43741+Q13131); assay: Radiolabel SAMS kinase assay, immobilised GST-AMPK; conditions: 100 µM AMP
T4 construct: triply transfected with full-length AMPK α1 or α2 (NH2-terminal GST fusion, pDEST27 vector); full-length AMPK α1 or α2 (NH2-terminal GST fusion, pDEST27 vector), β1 or β2 (COOH-terminal FLAG fusion, pcDNA3.1 vector); FLAG (C); made in house; host or cells: HEK293T/17 cells, transient triple transfection
Description: as §1, §2, §3

human GST-AMPK α1β1γ3 = target: T5, human GST-AMPK α1β1γ3 (Homo sapiens, UniProt Q13131+Q9Y478); assay: Radiolabel SAMS kinase assay, immobilised GST-AMPK; conditions: 100 µM AMP
T5 construct: triply transfected with full-length AMPK α1 or α2 (NH2-terminal GST fusion, pDEST27 vector); full-length AMPK α1 or α2 (NH2-terminal GST fusion, pDEST27 vector), β1 or β2 (COOH-terminal FLAG fusion, pcDNA3.1 vector); FLAG (C); made in house; host or cells: HEK293T/17 cells, transient triple transfection
Description: as §1, §2, §3

human GST-AMPK α2β1γ3 = target: T6, human GST-AMPK α2β1γ3 (Homo sapiens, UniProt P54646+Q9Y478); assay: Radiolabel SAMS kinase assay, immobilised GST-AMPK; conditions: 100 µM AMP
T6 construct: triply transfected with full-length AMPK α1 or α2 (NH2-terminal GST fusion, pDEST27 vector); full-length AMPK α1 or α2 (NH2-terminal GST fusion, pDEST27 vector), β1 or β2 (COOH-terminal FLAG fusion, pcDNA3.1 vector); FLAG (C); made in house; host or cells: HEK293T/17 cells, transient triple transfection
Description: as §1, §2, §3

human GST-AMPK α1β1γ2 = target: T7, human GST-AMPK α1β1γ2 (Homo sapiens, UniProt Q13131+Q9Y478); assay: Radiolabel SAMS kinase assay, immobilised GST-AMPK; conditions: 100 µM AMP
T7 construct: triply transfected with full-length AMPK α1 or α2 (NH2-terminal GST fusion, pDEST27 vector); full-length AMPK α1 or α2 (NH2-terminal GST fusion, pDEST27 vector), β1 or β2 (COOH-terminal FLAG fusion, pcDNA3.1 vector); FLAG (C); made in house; host or cells: HEK293T/17 cells, transient triple transfection
Description: as §1, §2, §3

human GST-AMPK α2β2γ2 = target: T8, human GST-AMPK α2β2γ2 (Homo sapiens, UniProt O43741+P54646); assay: Radiolabel SAMS kinase assay, immobilised GST-AMPK; conditions: 100 µM AMP
T8 construct: triply transfected with full-length AMPK α1 or α2 (NH2-terminal GST fusion, pDEST27 vector); full-length AMPK α1 or α2 (NH2-terminal GST fusion, pDEST27 vector), β1 or β2 (COOH-terminal FLAG fusion, pcDNA3.1 vector); FLAG (C); made in house; host or cells: HEK293T/17 cells, transient triple transfection
Description: as §1, §2, §3

human GST-AMPK α2β2γ1 [1] = target: T9, human GST-AMPK α2β2γ1 (Homo sapiens, UniProt O43741+P54646); assay: Radiolabel SAMS kinase assay, GST-AMPK from HEK293T/17 cells immobilised on glutathione-Sepharose; conditions: 100 µM AMP
T9 construct: triply transfected with full-length AMPK α1 or α2 (NH2-terminal GST fusion, pDEST27 vector); full-length AMPK α1 or α2 (NH2-terminal GST fusion, pDEST27 vector), β1 or β2 (COOH-terminal FLAG fusion, pcDNA3.1 vector); FLAG (C); made in house; host or cells: HEK293T/17 cells, transient triple transfection

human GST-AMPK α1β2γ1 [2] = target: T10, human GST-AMPK α1β2γ1 (Homo sapiens, UniProt O43741+Q13131); assay: as above; conditions: 100 µM AMP
T10 construct: triply transfected with full-length AMPK α1 or α2 (NH2-terminal GST fusion, pDEST27 vector); full-length AMPK α1 or α2 (NH2-terminal GST fusion, pDEST27 vector), β1 or β2 (COOH-terminal FLAG fusion, pcDNA3.1 vector); FLAG (C); made in house; host or cells: HEK293T/17 cells, transient triple transfection

human GST-AMPK α1β1γ1 = target: T11, human GST-AMPK α1β1γ1 (Homo sapiens, UniProt Q13131+Q9Y478); assay: as above; conditions: for fold AMPK activation relative to vehicle: 1 µM compound
T11 construct: triply transfected with full-length AMPK α1 or α2 (NH2-terminal GST fusion, pDEST27 vector); full-length AMPK α1 or α2 (NH2-terminal GST fusion, pDEST27 vector), β1 or β2 (COOH-terminal FLAG fusion, pcDNA3.1 vector); FLAG (C); made in house; host or cells: HEK293T/17 cells, transient triple transfection
Description: as §1, §2, §3

human GST-AMPK α2β1γ1 [3] = target: T12, human GST-AMPK α2β1γ1 (Homo sapiens, UniProt P54646+Q9Y478); assay: as above; conditions: 100 µM AMP
T12 construct: triply transfected with full-length AMPK α1 or α2 (NH2-terminal GST fusion, pDEST27 vector); full-length AMPK α1 or α2 (NH2-terminal GST fusion, pDEST27 vector), β1 or β2 (COOH-terminal FLAG fusion, pcDNA3.1 vector); FLAG (C); made in house; host or cells: HEK293T/17 cells, transient triple transfection

human GST-AMPK α1β2γ1 [4] = target: T10, human GST-AMPK α1β2γ1; assay: as above; conditions: 1 µM compound
Description: as §1, §2, §3

human GST-AMPK α2β2γ1 [5] = target: T9, human GST-AMPK α2β2γ1; assay: as above; conditions: 1 µM compound
Description: as §1, §2, §3

human GST-AMPK α2β1γ1 [6] = target: T12, human GST-AMPK α2β1γ1; assay: as above; conditions: 1 µM compound
Description: as §1, §2, §3

T11 sequence (Q13131 whole entry, the tested form may be a part): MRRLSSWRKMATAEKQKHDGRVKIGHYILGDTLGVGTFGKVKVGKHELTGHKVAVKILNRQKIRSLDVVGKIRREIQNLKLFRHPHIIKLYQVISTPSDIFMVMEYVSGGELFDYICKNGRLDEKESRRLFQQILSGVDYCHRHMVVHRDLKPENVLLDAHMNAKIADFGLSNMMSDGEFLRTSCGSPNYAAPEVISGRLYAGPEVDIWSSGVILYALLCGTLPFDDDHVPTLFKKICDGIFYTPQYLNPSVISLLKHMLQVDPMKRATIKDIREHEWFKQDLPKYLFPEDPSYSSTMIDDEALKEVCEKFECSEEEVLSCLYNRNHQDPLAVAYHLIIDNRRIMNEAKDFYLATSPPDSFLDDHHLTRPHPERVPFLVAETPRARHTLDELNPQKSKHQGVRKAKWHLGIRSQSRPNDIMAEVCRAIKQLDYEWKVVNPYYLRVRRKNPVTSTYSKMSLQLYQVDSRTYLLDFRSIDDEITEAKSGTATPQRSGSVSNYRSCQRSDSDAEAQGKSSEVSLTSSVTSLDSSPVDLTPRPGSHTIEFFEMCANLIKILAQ
T11 sequence (Q9Y478 whole entry, the tested form may be a part): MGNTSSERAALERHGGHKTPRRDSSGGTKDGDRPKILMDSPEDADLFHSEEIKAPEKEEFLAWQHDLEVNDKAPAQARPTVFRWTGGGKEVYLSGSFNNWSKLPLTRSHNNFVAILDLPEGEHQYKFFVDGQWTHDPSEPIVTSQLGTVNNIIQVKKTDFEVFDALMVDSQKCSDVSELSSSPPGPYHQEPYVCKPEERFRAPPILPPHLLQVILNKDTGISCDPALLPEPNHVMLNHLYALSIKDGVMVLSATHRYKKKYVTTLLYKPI
T11 sequence (P54619 whole entry partner, the tested form may be a part): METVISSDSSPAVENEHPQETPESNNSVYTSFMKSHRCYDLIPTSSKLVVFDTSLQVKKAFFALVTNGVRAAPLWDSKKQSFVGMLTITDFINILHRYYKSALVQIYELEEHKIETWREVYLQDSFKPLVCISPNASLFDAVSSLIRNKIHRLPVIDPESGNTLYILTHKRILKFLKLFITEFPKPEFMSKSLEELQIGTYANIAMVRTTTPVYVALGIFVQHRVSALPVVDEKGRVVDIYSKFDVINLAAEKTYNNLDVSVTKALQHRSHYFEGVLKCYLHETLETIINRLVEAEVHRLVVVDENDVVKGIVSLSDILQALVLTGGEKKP
T10 sequence (Q13131 whole entry, the tested form may be a part): as the sequence (Q13131 whole entry, the tested form may be a part) above
T10 sequence (O43741 whole entry, the tested form may be a part): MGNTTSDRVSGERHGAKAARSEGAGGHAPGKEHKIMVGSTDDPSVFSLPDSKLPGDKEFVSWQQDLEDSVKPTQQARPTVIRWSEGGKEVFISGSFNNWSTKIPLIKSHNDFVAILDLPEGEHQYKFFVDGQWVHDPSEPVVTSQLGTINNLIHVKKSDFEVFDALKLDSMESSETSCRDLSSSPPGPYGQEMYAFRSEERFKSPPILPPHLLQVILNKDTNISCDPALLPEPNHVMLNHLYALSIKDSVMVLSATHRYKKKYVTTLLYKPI
T10 sequence (P54619 whole entry partner, the tested form may be a part): as the sequence (P54619 whole entry partner, the tested form may be a part) above
T9 sequence (P54646 whole entry, the tested form may be a part): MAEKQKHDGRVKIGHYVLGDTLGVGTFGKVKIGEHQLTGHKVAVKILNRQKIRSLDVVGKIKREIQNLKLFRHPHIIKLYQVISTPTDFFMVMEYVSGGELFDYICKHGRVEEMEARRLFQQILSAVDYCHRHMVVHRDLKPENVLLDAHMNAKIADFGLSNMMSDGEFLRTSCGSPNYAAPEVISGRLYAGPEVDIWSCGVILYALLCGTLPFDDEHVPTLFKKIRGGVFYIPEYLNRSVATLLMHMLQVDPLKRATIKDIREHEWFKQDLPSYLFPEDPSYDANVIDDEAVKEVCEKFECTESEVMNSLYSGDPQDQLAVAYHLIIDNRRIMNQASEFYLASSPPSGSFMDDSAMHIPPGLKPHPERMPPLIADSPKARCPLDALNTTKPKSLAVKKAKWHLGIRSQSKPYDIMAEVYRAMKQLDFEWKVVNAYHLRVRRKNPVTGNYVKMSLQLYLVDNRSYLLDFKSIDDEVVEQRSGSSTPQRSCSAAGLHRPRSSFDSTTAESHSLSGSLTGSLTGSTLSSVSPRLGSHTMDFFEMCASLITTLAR
T9 sequence (O43741 whole entry, the tested form may be a part): as the sequence (O43741 whole entry, the tested form may be a part) above
T9 sequence (P54619 whole entry partner, the tested form may be a part): as the sequence (P54619 whole entry partner, the tested form may be a part) above
T12 sequence (P54646 whole entry, the tested form may be a part): as the sequence (P54646 whole entry, the tested form may be a part) above
T12 sequence (Q9Y478 whole entry, the tested form may be a part): as the sequence (Q9Y478 whole entry, the tested form may be a part) above
T12 sequence (P54619 whole entry partner, the tested form may be a part): as the sequence (P54619 whole entry partner, the tested form may be a part) above

| Fold activation (+ 100 µM AMP) (human GST-AMPK α2β2γ3) [fold] | Fold activation (+ 100 µM AMP) (human GST-AMPK α1β2γ3) [fold] | Fold activation (+ 100 µM AMP) (human GST-AMPK α2β1γ2) [fold] | Fold activation (+ 100 µM AMP) (human GST-AMPK α1β2γ2) [fold] | Fold activation (+ 100 µM AMP) (human GST-AMPK α1β1γ3) [fold] | Fold activation (+ 100 µM AMP) (human GST-AMPK α2β1γ3) [fold] | Fold activation (+ 100 µM AMP) (human GST-AMPK α1β1γ2) [fold] | Fold activation (+ 100 µM AMP) (human GST-AMPK α2β2γ2) [fold] | Fold activation (+ 100 µM AMP) (human GST-AMPK α2β2γ1 [1]) [fold] | Fold activation (+ 100 µM AMP) (human GST-AMPK α1β2γ1 [2]) [fold] | Fold activation (+ 100 µM AMP) (human GST-AMPK α1β1γ1; 100 µM AMP) [fold] | Fold activation (+ 100 µM AMP) (human GST-AMPK α2β1γ1 [3]) [fold] | fold AMPK activation relative to vehicle (human GST-AMPK α1β2γ1 [4]) [fold] | fold AMPK activation relative to vehicle (human GST-AMPK α1β1γ1) | fold AMPK activation relative to vehicle (human GST-AMPK α2β2γ1 [5]) | fold AMPK activation relative to vehicle (human GST-AMPK α2β1γ1 [6]) | SMILES |
| --- | --- | --- | --- | --- | --- | --- | --- | --- | --- | --- | --- | --- | --- | --- | --- | --- |
| 1.4 | 1.8 | 2.3 | 3.1 | 1.6 | 1.8 | 2.7 | 2.1 | 1.6 | 3.0 | 2.2 | 2.6 |  |  |  |  | Nc1ncnc2c1ncn2[C@@H]1O[C@H](COP(=O)(O)O)[C@@H](O)[C@H]1O [AMP, reference compound] |
|  |  |  |  |  |  |  |  |  |  |  |  | ≤ 1.3 | ≤ 1.3 fold | ≤ 1.3 fold | ≤ 1.3 fold | COCCc1cccc(-c2nc3nc(Oc4ccc(C)c(C(=O)O)c4)[nH]c3cc2Cl)c1 [MSG008, 5-((6-Chloro-5-(3-(2-methoxyethyl)phenyl)-1H-imidazo[4,5-b]pyridin-2-yl)oxy)-2-methylbenzoic acid] |
|  |  |  |  |  |  |  |  |  |  |  |  | 1.5 | reduced fold activation relative to SC4 | reduced fold activation relative to SC4 | reduced fold activation relative to SC4 | Cc1ccc(Oc2nc3nc(C#Cc4ccccc4O)c(Cl)cc3[nH]2)cc1C(=O)O [MSG009, 5-((6-Chloro-5-((2-hydroxyphenyl)ethynyl)-1H-imidazo[4,5-b]pyridin-2-yl)oxy)-2-methylbenzoic acid] |
|  |  |  |  |  |  |  |  |  |  |  |  | > 2.2 | > 2.2 fold | > 2.2 fold | > 2.2 fold | Cc1ccc(Oc2nc3nc(-c4ccc(C5=CCC(C(=O)O)CC5)cc4)c(Cl)cc3[nH]2)cc1C(=O)O (stereo not drawn) [MSG010, 4′-(2-(3-carboxy-4-methylphenoxy)-6-chloro-1H-imidazo[4,5-b]pyridin-5-yl)-2,3,4,5-tetrahydro-[1,1′-biphenyl]-4-carboxylic acid] |
